Assay results as given in patent US9067891B2, “1,4-disubstituted 3-cyano-pyridone derivatives and their use as positive allosteric modulators of mGluR2-receptors” (JANSSEN PHARMACEUTICALS, INC., priority 2007, dated 2015).
Values joined by “and” are separate entries in the source; they are usually repeats but may differ in a detail not shown here. Equal values may be shown once.

What was measured:
human mGluR2 receptor = molecular target: T1, human mGluR2 receptor (Homo sapiens, UniProt Q14416); assay: [35S]GTPγS binding assay (GTPγS-PAM), membranes from CHO cells transfected with human mGluR2; assay type: biochemical; settings: positive allosteric modulation in presence of glutamate at predetermined EC25 concentration, averages of duplicate values of 11-concentration response curves, pEC50 = -logEC50, error about 0.3 log-units; for EC50: read-out: GTPgS - hR2 PAM pEC50 (converted)
T1 construct: expressed in transfected cells; host or cells: CHO cells (membrane preparation)
T1 sequence (Q14416 19-872): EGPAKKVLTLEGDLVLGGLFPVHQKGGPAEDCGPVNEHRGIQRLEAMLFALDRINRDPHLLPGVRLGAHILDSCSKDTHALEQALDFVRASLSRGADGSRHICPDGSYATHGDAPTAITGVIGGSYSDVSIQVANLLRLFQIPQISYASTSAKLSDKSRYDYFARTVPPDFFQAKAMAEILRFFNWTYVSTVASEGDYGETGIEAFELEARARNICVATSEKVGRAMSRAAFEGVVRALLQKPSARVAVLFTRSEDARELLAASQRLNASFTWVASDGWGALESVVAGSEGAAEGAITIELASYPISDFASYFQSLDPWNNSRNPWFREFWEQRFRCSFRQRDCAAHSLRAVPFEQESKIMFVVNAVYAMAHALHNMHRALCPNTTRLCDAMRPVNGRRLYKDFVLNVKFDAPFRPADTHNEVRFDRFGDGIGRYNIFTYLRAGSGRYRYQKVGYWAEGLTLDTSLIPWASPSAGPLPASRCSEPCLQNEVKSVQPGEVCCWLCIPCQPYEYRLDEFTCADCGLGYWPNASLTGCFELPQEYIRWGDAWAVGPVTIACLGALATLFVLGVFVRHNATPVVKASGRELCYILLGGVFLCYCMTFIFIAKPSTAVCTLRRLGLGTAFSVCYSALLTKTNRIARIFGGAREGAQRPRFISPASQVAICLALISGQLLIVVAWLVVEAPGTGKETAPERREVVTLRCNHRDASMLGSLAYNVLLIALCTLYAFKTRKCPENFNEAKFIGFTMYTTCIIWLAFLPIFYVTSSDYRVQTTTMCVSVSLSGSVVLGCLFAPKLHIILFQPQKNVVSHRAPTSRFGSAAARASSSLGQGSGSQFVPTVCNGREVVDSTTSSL
From the text: The compounds provided in the present invention are positive allosteric modulators of mGluR2. These compounds appear to potentiate glutamate responses by binding to an allosteric site other than the glutamate binding site. The response of mGluR2 to a concentration of glutamate is increased when compounds of formula (I) are present. Compounds of formula (I) are expected to have their effect substantially at mGluR2 by virtue of their ability to enhance the function of the receptor. The behaviour of positive allosteric modulators tested at mGluR2 using the [^35S]GTPγS binding assay method described below and which is suitable for the identification of such compounds, and more particularly the compounds according to formula (I), are shown in Table 3.
[^35S]GTPγS Binding Assay
The [^35S]GTPγS binding assay is a functional membrane-based assay used to study G-protein coupled receptor (GPCR) function whereby incorporation of a non-hydrolysable form of GTP, [^35S]GTPγS (guanosine 5′-triphosphate, labelled with […] ^35S), is measured. The G-protein […] catalyzes the exchange of guanosine 5′-diphosphate (GDP) by guanosine triphosphate (GTP) and on activation of the GPCR by an agonist, [^35S]GTPγS, becomes incorporated and cannot be cleaved to continue the exchange cycle (Harper (1998) Current Protocols in Pharmacology 2.6.1-10, John Wiley & Sons, Inc.). […] Here we describe the use of the [^35S]GTPγS binding assay using membranes from cells transfected with the human mGluR2 receptor and adapted from Sehaffhauser et al ((2003) Molecular Pharmacology 4:798-810) for the detection of the positive allosteric modulation (PAM) properties of the compounds of this invention.
CHO-cells were cultured to pre-confluence and stimulated with 5 mM butyrate for 24 hours, prior to washing in PBS, and then collection by scraping in homogenisation buffer (50 mM Tris-HCl buffer, pH 7.4, 4° C.). Cell lysates were homogenized briefly (15 s) using an ultra-turrax homogenizer. The homogenate was centrifuged at 23 500×g for 10 minutes and the supernatant discarded. The pellet was resuspended in 5 mM Tris-HCl, pH 7.4 and centrifuged again (30 000×g, 20 min, 4° C.). The final pellet was resuspended in 50 mM HEPES, pH 7.4 and stored at −80° C. in appropriate aliquots before use. Protein concentration was determined by the Bradford method (Bio-Rad, USA) with bovine serum albumin as standard.
Measurement of mGluR2 positive allosteric modulatory activity of test compounds in membranes containing human mGluR2 was performed using frozen membranes that were thawed and briefly homogenised prior to pre-incubation in 96-well microplates (15 μg/assay well, 30 minutes, 30° C.) in assay buffer (50 mM HEPES pH 7.4, 100 mM NaCl, 3 mM MgCl2, 50 μM GDP, 10 μg/ml saponin,) with increasing concentrations of positive allosteric modulator (from 0.3 nM to 50 μM) and either a minimal pre-determined concentration of glutamate (PAM assay), or no added glutamate. For the PAM assay, membranes were pre-incubated with glutamate at EC25 concentration, i.e. a concentration that gives 25% of the maximal response glutamate, and is in accordance to published data (Pin et al. (1999) Eur. J. Pharmacol. 375:277-294). After addition of [^35S]GTPγS (0.1 nM, f.c.) to achieve a total reaction volume of 200 μl, microplates were shaken briefly and further incubated to allow [^35S]GTPγS incorporation on activation (30 minutes, 30° C.). The reaction was stopped by rapid vacuum filtration over glass-fibre filter plates (Unifilter 96-well GF/B filter plates, Perkin-Elmer, Downers Grove, USA) microplate using a 96-well plate cell harvester (Filtermate, Perkin-Elmer, USA), and then by washing three times with 300 μl of ice-cold wash buffer (Na2PO4.2H20 10 mM, NaH2PO4.H20 10 mM, pH=7.4). […]

SMILES	EC50 (human mGluR2 receptor) [nM]	melting point	GTPgS - hR2 PAM pEC50 (human mGluR2 receptor)
Cc1cc(Oc2ccc(-c3ccn(CC4CC4)c(=O)c3C#N)c(F)c2)cc(C)n1 [Compound 8, 1-Cyclopropylmethyl-4-[4-(2,6-dimethyl-pyridin-4-yloxy)-2-fluoro-phenyl]-2-oxo-1,2-dihydro-pyridine-3-carbonitrile]	794	–	–
Cc1cc(C)nc(Oc2ccc(-c3ccn(CC4CC4)c(=O)c3C#N)c(F)c2)c1 [Compound 1, 1-Cyclopropylmethyl-4-[4-(4,6-dimethyl-pyridin-2-yloxy)-2-fluoro-phenyl]-2-oxo-1,2-dihydro-pyridine-3-carbonitrile]	813	137 °C	–
Cc1ccc(Oc2ccc(-c3ccn(CC4CC4)c(=O)c3C#N)cc2F)c(C)n1 [Compound 3, 1-Cyclopropylmethyl-4-[4-(2,6-dimethyl-pyridin-3-yloxy)-3-fluoro-phenyl]-2-oxo-1,2-dihydro-pyridine-3-carbonitrile]	457	152.7 °C	–
CCCCn1ccc(-c2ccc(Oc3cc(C)nc(C)c3)c(F)c2)c(C#N)c1=O [Compound 7, 1-Butyl-4-[4-(2,6-dimethyl-pyridin-4-yloxy)-3-fluoro-phenyl]-2-oxo-1,2-dihydro-pyridine-3-carbonitrile]	347	–	–
CCCCn1ccc(-c2ccc(Oc3cccnc3C)cc2)c(C#N)c1=O [Compound 16]	437	136.7 °C	–
CCCCn1ccc(-c2ccc(Oc3ccnc(C)c3)cc2F)c(C#N)c1=O [Compound 4, 1-Butyl-4-[2-fluoro-4-(2-methyl-pyridin-4-yloxy)-phenyl]-2-oxo-1,2-dihydro-pyridine-3-carbonitrile]	–	127.1 °C	6.41
CCCCn1ccc(-c2ccc(Oc3cccnc3C)c(F)c2)c(C#N)c1=O [Compound 12]	537	104.8 °C	–
Cc1nccc(Oc2ccc(-c3ccn(CC4CC4)c(=O)c3C#N)c(F)c2)c1C [Compound 10, 1-Cyclopropylmethyl-4-[4-(2,3-dimethyl-pyridin-4-yloxy)-2-fluoro-phenyl]-2-oxo-1,2-dihydro-pyridine-3-carbonitrile]	372	–	–
N#Cc1c(-c2ccc(Oc3ccnc(Cl)c3)cc2)ccn(CC2CC2)c1=O [Compound 19]	158	–	–
CCCCn1ccc(-c2ccc(Oc3cc(C)nc(C)c3)cc2F)c(C#N)c1=O [Compound 6, 1-Butyl-4-[4-(2,6-dimethyl-pyridin-4-yloxy)-2-fluoro-phenyl]-2-oxo-1,2-dihydro-pyridine-3-carbonitrile]	437	169.9 °C	–
CCCCn1ccc(-c2ccc(Oc3ccc(C)nc3C)c(F)c2)c(C#N)c1=O [Compound 2, 1-Butyl-4-[4-(2,6-dimethyl-pyridin-3-yloxy)-3-fluoro-phenyl]-2-oxo-1,2-dihydro-pyridine-3-carbonitrile]	138	156.4 °C	–
CCCCn1ccc(-c2ccc(Oc3ccnc(C)c3)cc2)c(C#N)c1=O [Compound 18, 3-cyano-1-butyl-4-[4-(2-methyl-pyridin-4-yloxy)-phenyl]-pyridine-2(1H)-one]	–	121 °C	–
CCCCn1ccc(-c2cc(F)c(Oc3ccnc(C)c3)c(F)c2)c(C#N)c1=O [Compound 15]	708	172.2 °C	–
CCCCn1ccc(-c2ccc(Oc3ccnc(C)c3)c(F)c2)c(C#N)c1=O [Compound 5, 1-Butyl-4-[3-fluoro-4-(2-methyl-pyridin-4-yloxy)-phenyl]-2-oxo-1,2-dihydro-pyridine-3-carbonitrile]	437	125.2 °C and 125.4 °C	–
Cc1ncccc1Oc1ccc(-c2ccn(CCC3CC3)c(=O)c2C#N)cc1F [Compound 14]	380	145.8 °C	–
Cc1cc(Oc2ccc(-c3ccn(CCC4CC4)c(=O)c3C#N)c(F)c2)ccn1 [Compound 13]	417	110.7 °C	–
CCCCn1ccc(-c2ccc(Oc3cc(C)ccn3)cc2)c(C#N)c1=O [Compound 17]	1000	–	–
Cc1cc(Oc2ccc(-c3ccn(CC4CC4)c(=O)c3C#N)cc2F)cc(C)n1 [Compound 9, 1-Cyclopropylmethyl-4-[4-(2,6-dimethyl-pyridin-4-yloxy)-3-fluoro-phenyl]-2-oxo-1,2-dihydro-pyridine-3-carbonitrile]	708	201.2 °C	–
CCCCn1ccc(-c2ccc(Oc3ccncc3Cl)cc2)c(C#N)c1=O [Compound 20]	631	–	–
Cc1nccc(Oc2ccc(-c3ccn(CC4CC4)c(=O)c3C#N)cc2F)c1C [Compound 11, 1-Cyclopropylmethyl-4-[4-(2,3-dimethyl-pyridin-4-yloxy)-3-fluoro-phenyl]-2-oxo-1,2-dihydro-pyridine-3-carbonitrile]	676	–	–
